One assay relates to rats. The experiment in a line: L-5-hydroxytryptophan (5-HTP) potentiation assay (antidepressant activity). It counts as in vivo, male Wistar rats.
Assay [1] concerns mice. Kind of assay: phenyl-p-benzoquinone writhing assay (analgesic activity). It counts as in vivo, mice (male, Charles River, CD-1). To be noted: for % Inhibition of writhing: screening dose of 20 mg/kg, s.c.; for ED50: Mus musculus, sc, footnote 1 of Table 1, read-out: Analgesic Activity, ED50 (calculated dose effecting 50% inhibition of writhing).
Method: The procedure employed to determine analgetic utility is a modification of the phenyl-p-benzoquinone writhing assay in mice, a standard assay for analgesia [Proc. Soc. […] Pursuant to the modified procedure phenyl-p-benzoquinone (Eastman, 12.5 mg) is dissolved in 5 ml of 95% ethanol and the solution is diluted to a total volume of 100 ml with distilled water. The solution is administered to the subject mice intraperitoneally at a dose of 10 ml per kg of body weight. A characteristic "writhe" an inward rotation of one or more feet with twisting and turning of the trunk, drawing in of the abdominal wall, lordosis and arching of the back, is produced.
A total of 28 male mice (Charles River, CD-1), weighing 18 to 30 grams, are employed for a time response. The subject animals receive food and water ad libitum. Test compounds are dissolved in distilled water, or suspended in distilled water containing one drop of a suitable surfactant, such as Tween-80.
Four groups of five animals (20 animals) are given the test compound subcutaneously (s.c.) or orally (p.o.) at 15, 30, 45 and 60 minutes prior to administration of the phenyl-p-quinone. A control group (2 animals per group) receive an equal volume of the vehicle. After the administration of the phenyl-p-quinone, the mice are placed separately in one liter beakers, and after five minutes, are observed for ten minutes. The number of writhes for each animal is recorded. The following formula is used to compute the percent inhibition: [formula]
The time period with the greatest percent of inhibition is considered the peak time.
Assay [2] relates to mice. Kind of assay: tetrabenazine (TBZ) induced ptosis assay (antidepressant activity). It counts as in vivo, mice (male, Charles River, CD-1).
Method: In the tetrabenazine induced ptosis assay, male mice (Charles River, CD-1), weighing 20 to 39 g, are used in test groups of five animals. Test compounds are dissolved, or suspended with 1 drop of Tween-80, in distilled water and administered to the animals in volumes of 10 cc per kg of body weight. Tetrabenazine methanesulfonate (76.78% as the free base) is dissolved in distilled water and the concentration of the solution is adjusted so that the dose, administered intraperitoneally (i.p.) to the animals, is 40 mg of tetrabenazine base per kg of animal body weight.
The test compound is administered intraperitoneally (i.p.) or perorally (p.o.) to the subject animals, and the tetrabenazine solution is administered 30 minutes or 60 minutes, respectively, thereafter. Tetrabenazine solution and the solvent used to dissolve or suspend the test compounds are administered by the same route and at the same intervals as the test compounds to a control group.
The subject animals are placed in individual plastic containers (101/2"×8"×6") thirty (i.p.) and sixty minutes (p.o.) after administration of the tetrabenazine solution, and one minute thereafter, the animals are scored for ptosis on the following scale:
The total score for each group of 5 animals will therefore vary from 0 to 20; these scores are used as the indications of the activity of the test compound.
The vehicle-control group score is used as a determination of the validity of each test.
For calculation of the ED50 value of a test compound; i.e., the calculated dose at which the test compound effects a 50% inhibition of tetrabenazine-induced ptosis, four or five doses are administered, and only vehicle-control scores of 17 to 20 are acceptable. A linear-regression analysis is used to estimate ED50 values and 95% confidence limits.
The subject of assay [3] is spontaneous hypertensive rat. Kind of assay: antihypertensive activity, indirect tail cuff method. It counts as in vivo. To be noted: 50 mg/kg p.o.; measured on third day. The procedure:
The compounds of this invention are also useful as antihypertensive agents due to their ability to depress blood pressure in mammals. Antihypertensive activity is measured in the spontaneous hypertensive rat by the indirect tail cuff method described in "Methods in Pharmacology", A. Schwartz, Ed., Vol. I, Appleton-Century Crofts, New York, N.Y., 1971, p. 135. In this procedure a group of five animals is treated orally for three days with the test compound in relation to a control group of the same number. The drop in blood pressure is measured on the third day following administration. The antihypertensive activities of representative compounds, expressed as a decrease in mean arterial blood pressure (in mm Hg), are given in Table 3 along with the activity of a standard compound.

Assay [4] concerns mice. Kind of assay: metrazol lethality assay (MTZ), anticonvulsant activity. Type of assay: in vivo, mice (male, Charles River, CD-1).
Where [5] appears, read: Rattus norvegicus, ip; read-out: 5-HTP ED50.
Setting [6] is: Mus musculus, ip; read-out: TBZ ED50.
The mark [7] stands for this setting: Mus musculus, ip, read-out: TBZ ED50.
Setting [8] is: Rattus norvegicus, ip, read-out: 5-HTP ED50.

Where a name gives a salt, the structure may show the parent alone. Read-outs that look alike come from different tables or passages of the source. Some results are limits rather than exact numbers.

Method for rats: Antidepressant activity is determined by the L-5-hydroxytryptophan potentiation assay in rats described in Brit.
In the L-5-hydroxytryptophan potentiation assay groups of six male Wistar rats (150-200 grams each) are used. Pargyline hydrochloride is prepared and administered four hours before testing by subcutaneous injection at 75 mg/kg in 1% saline and a dosage volume of 1.0 ml/kg. Thirty minutes before testing, drugs are prepared and dosed using distilled water and, if insoluble, a suitable surfactant is added. Control groups receive vehicle. Drugs are routinely administered intraperitoneally at a dosage volume of 10 ml/kg. L-5-hydroxytryptophan (5-HTP) is prepared at 1.0 mg/kg in distilled water and is administered intraperioneally in volumes proportional to 10 ml/kg.
Potentiation is expressed as normalized percent potentiation relative to vehicle control. ED50 values (the calculated dose at which the test compound effects a 50% inhibition of continuous forelimb clonus) and 95% confidence limits are determined by linear analysis.

The term ED50 denotes the dose that gives a 50% effect, or the effect in half of the subjects. Take `Cl.Fc1ccc(C2(Oc3c(F)c(F)c(F)c(F)c3F)CCNCC2)cc1` [4-(4-Fluorophenyl)-4-(2,3,4,5,6-pentafluorophenoxy)piperidine hydrochloride]: the ED50 with rats (setting [5]) was less than 10 mg/kg; with mice [2] (setting [6]) it was 4.8 mg/kg. For the same compound, the “% Inhibition of writhing” value with mice [1] came to 58%.
Consider `CN1CCC(Oc2c(F)c(F)c(F)c(F)c2F)(c2ccccc2F)CC1.O=C(O)C(=O)O` [4-(2-Fluorophenyl)-1-methyl-4-(2,3,4,5,6-pentafluorophenoxy) piperidine oxalate], for which, in the assay on mice [2] (setting [7]), the ED50 amounted to 3.8 mg/kg.
`Cc1ccc(C2(Oc3c(F)c(F)c(F)c(F)c3F)CCN(C)CC2)cc1` [(4-(4-Methylphenyl)-1-methyl-4-(2,3,4,5,6-pentafluorophenoxy)piperidine hydrochloride]: in the assay on mice [2] (setting [7]), the ED50 came to 7 mg/kg.
In the case of `Fc1c(F)c(F)c(OC2(c3ccccc3)CCNCC2)c(F)c1F.O=C(O)/C=C\C(=O)O` [4-(2,3,4,5,6-Pentafluorophenoxy)-4-phenylpiperidine maleate], the ED50 with rats (setting [5]) was determined as 14.5 mg/kg; in the assay on mice [2] (setting [6]), 1 mg/kg.
Take `Cl.Fc1c(F)c(F)c(OC2CCNCC2)c(F)c1F` [4-(2,3,4,5,6-Pentafluorophenoxy)piperidine hydrochloride]: the ED50 in the assay on mice [1] was 20 mg/kg.
With `COc1ccc(C2(Oc3c(F)c(F)c(F)c(F)c3F)CCN(C)CC2)cc1.Cl` [4-(4-Methoxyphenyl)-1-methyl-4-(2,3,4,5,6-pentafluorophenoxy) piperidine hydrochloride], in the assay on mice [1], the “% Inhibition of writhing” value came out at 53%.
For `CN1CCC(Oc2c(F)c(F)c(F)c(F)c2F)CC1` [1-methyl-4-(2,3,4,5,6-pentafluorophenoxy)piperidine], the 50% effective dose (ED50) in the assay on rats (setting [5]) and with mice [2] (setting [6]) was 4.7 mg/kg each time.
With `Fc1ccccc1C1(Oc2c(F)c(F)c(F)c(F)c2F)CCNCC1.O=C(O)/C=C\C(=O)O` [4-(2-Fluorophenyl)-4-(2,3,4,5,6-pentafluorophenoxy)piperidine maleate], the 50% effective dose (ED50) in the assay on rats (setting [5]) was less than 20 mg/kg; in the assay on mice [2] (setting [6]) it was 6.4 mg/kg.
For the compound `Fc1c(F)c(F)c(OC2(c3ccc(Cl)cc3)CCNCC2)c(F)c1F.O=C(O)/C=C/C(=O)O` [4-(4-Chlorophenyl)-4-(2,3,4,5,6-pentafluorophenoxy)piperidine fumarate], the ED50 with rats (setting [5]) was 37 mg/kg; with mice [2] (setting [6]) it was 20 mg/kg. Besides, in the assay with mice [1], the “% Inhibition of writhing” value stood at 66%.
Take `Cc1ccc(C2(Oc3c(F)c(F)c(F)c(F)c3F)CCNCC2)cc1.O=C(O)/C=C\C(=O)O` [4-(4-Methylphenyl)-4-(2,3,4,5,6-pentafluorophenoxy)piperidine maleate]: the ED50 in the assay on rats (setting [5]) was 14.5 mg/kg; in the assay with mice [2] (setting [6]) it was 8.3 mg/kg. In addition, the “% Inhibition of writhing” value in the assay with mice [1] was 56%.
In the case of `Fc1c(F)c(F)c(OC2(c3ccccc3)CCN(Cc3ccccc3)CC2)c(F)c1F` [1-Benzyl-4-(2,3,4,5,6-pentafluorophenoxy)-4-phenyl piperidine], the “SHR mm dec. in blood pressure (decrease in mean arterial blood pressure)” value in assay [3] was found to be 40 mm Hg.
Take `CN1CCC(Oc2c(F)c(F)c(F)c(F)c2F)(c2ccccc2)CC1.Cl` [1-methyl-4-(2,3,4,5,6-pentafluorophenoxy)-4-phenylpiperidine hydrochloride]: the results for the ED50 in the assay with rats (setting [8]) and with mice [2] (setting [7]) were 8.1 mg/kg and 1.3 mg/kg, respectively.
Take `CP(C)(=O)CN1CCC(Oc2c(F)c(F)c(F)c(F)c2F)CC1` [1-[(Dimethylphosphinyl)methyl]-4-(2,3,4,5,6-pentafluorophenoxy)piperdine]: the ED50 in the assay on rats (setting [5]) was found to be 9.1 mg/kg.
In the case of `CN1CCC(Oc2c(F)c(F)c(F)c(F)c2F)(c2ccc(F)cc2)CC1.Cl` [4-(4-Fluorophenyl)-1-methyl-4-(2,3,4,5,6-pentafluorophenoxy)p iperidine hydrochloride], in the assay with mice [4] (30 mg/kg i.p., footnote 2 of Table 2), the “Percent inhibition of Metrazol lethality” value is reported as 80%. In addition, the ED50 was 7 mg/kg in the assay with rats (setting [8]) and 5.4 mg/kg with mice [2] (setting [7]). For the same compound, in the assay with mice [1], the “% Inhibition of writhing” value is given as 49%.
Turning to `CN(C)CCC=C1c2ccccc2CCc2ccccc21` [amitriptyline, reference compound], the ED50 was 7.1 mg/kg with rats (setting [5]) and 1.5 mg/kg in the assay with mice [2] (setting [6]).
`Cl.Fc1ccc2c(CCCN3CCC(Oc4c(F)c(F)c(F)c(F)c4F)CC3)noc2c1` [1-[(6-Fluoro-1,2-benzisoxazol-3-yl)propyl]-4-(2,3,4,5,6-pentafluorophenoxy)piperidine hydrochloride]: the “SHR mm dec. in blood pressure (decrease in mean arterial blood pressure)” value in assay [3] came out at 62 mm Hg.
On to `COc1ccccc1N1CCN(CCCCN2CCC(Oc3c(F)c(F)c(F)c(F)c3F)CC2)CC1` [1-{4-[1-[4-(2-Methoxyphenyl)piperazin-1-yl]butyl]}-4-(2,3,4,5,6-pentafluorophenoxy)piperidine dioxalate], for which, in the assay with mice [1], the 50% effective dose (ED50) is 19 mg/kg.
As for `N#CN1CCC(Oc2c(F)c(F)c(F)c(F)c2F)(c2ccccc2)CC1` [1-Cyano-4-(2,3,4,5,6-pentafluorophenoxy)-4-phenyl piperidine], the 50% effect level in the assay with mice [4] (Mus musculus, po) (ED50) was put at a dose of 55.2 mg/kg. Further, in the assay with mice [1], the “% Inhibition of writhing” value was found to be 52%.
`N=C(N)NCCN1CCCCCCC1` [guanethidine, reference compound]: the “SHR mm dec. in blood pressure (decrease in mean arterial blood pressure)” value in assay [3] is reported as 20 mm Hg.
As to `CN1CCC(Oc2c(F)c(F)c(F)c(F)c2F)(c2ccc(Cl)cc2)CC1.O=C(O)/C=C/C(=O)O` [4-(4-Chlorophenyl)-1-methyl-4-(2,3,4,5,6-pentafluorophenoxy)p iperidine fumarate], the ED50 in the assay with rats (setting [8]) turned out to be 11.9 mg/kg; in the assay with mice [2] (setting [7]) it was 38.9 mg/kg.

The values are drawn from patent publication US4914204A, “4-Pentafluorophenoxypiperidines” (priority 1988, dated 1990).
